Columns and labels:
[1] = system: rats with middle cerebral artery occlusion (MCAO); assay: Acute cerebral infarction model in rats with middle cerebral artery occlusion (MCAO); type: in vivo, male SD rats; details: MCAO
Description: After obtaining the active molecules that can promote the expression of VEGF-A mRNA in the animal model of inflammatory angiogenesis, a rat model of cerebral infarction was used for further verification. Following the method as described in Longa, E. Z., Longa, E. Z., Weinstein, P. R., Carlson, S. & Commin, R. Reversible middle cerebral artery occlusion without craniectomy in rats. [J]. Stroke, 1989. 1: 84-91, an acute cerebral infarction model was established in rats with middle cerebral artery occlusion (MCAO); and following the method as described in C. dela Torre, T. Fortin, G. A. S. Park, K. S. Butler, P. Kozlowski, B. A. Pappas, H. de Socarraz, J. K. Saunders and M. T. Richard. [J]. Brain Research, 1992. 582:186-195, a chronic cerebral ischemia model was established in rats with permanent ligation of bilateral common carotid arteries (2VO). The inhibition on cerebral infarction and neuroprotection for brain injury of the active molecules screened in Effect Example 2 were verified.
The control drugs were: Edaravone (purchased from Zhejiang Shengtong Biotechnology Co., Ltd.), Clopidogrel bisulfate (purchased from Wuhan Yuancheng Gongchuang Technology Co., Ltd.), and Salvianolate (purchased from Henan Provincial People's Hospital). Clopidogrel bisulfate is a platelet aggregation inhibitor, and Edaravone is a brain protectant (free radical scavenger). The MCAO model of rats was made by the thread occlusion method. The rats used in this effect example were male SD rats weighing 280-320 grams, purchased from Shanghai SLAC Laboratory Animal Co., Ltd. Five SD (Sprague Dawley) rats in each group were administered by intraperitoneal injection, 2 h before surgery, and every 24 h after modeling.
Three days later, the brain was taken, and the rat brain was stained with TTC (2,3,5-triphenyltetrazolium chloride, to detect the cell viability) and then photographed. Infarction rate (%)=(Non-infarction area of right brain section−non-infarction area of left brain section)/total area of brain section*100%. According to t tests, *P<0.05, **P<0.01, ***P<0.001 compared with the model group (MCAO). Infarction inhibition rate (%) at different doses=(infarction rate of model group-infarction rate of treatment group)/infarction rate of model group*100%. The infarction inhibition rate at different doses was plotted, and the ED50 of the drug was calculated.
Moreover, the body weight of the rats was recorded. The rate of body weight change was calculated according to a formula: Rate of body weight change (%)=(final weight-initial weight)/[…].
Three days after the acute cerebral infarction model was established in rats with MCAO, the test rats were scored for neurological function according to the Longa nerve scoring standard.
Three days after the acute cerebral infarction model of MCAO was established in rats, the intact brain tissue was taken out, olfactory bulb and the brain tissue that is 4 mm in front of the frontal pole was removed, and the immediately adjacent brain tissue of 2 mm thick was taken for water content measurement in the brain. The water content in brain tissue is calculated by the formula: (WW−DW)/WW×100%, where WW is the wet weight and DW is the dry weight. Three days after the acute cerebral infarction model of MCAO was established in rats, the brain tissue was stained with Evans Blue (EB, a commonly used azo dye preparation) to evaluate the permeability across the blood-brain barrier (BBB), so as to evaluate the integrity of blood-brain barrier. Both experiments were tested with the optimal dose of each drug previously determined: TG-028 (5 mg/Kg), Salvianolate (20 mg/Kg), Clopidogrel bisulfate (40 mg/Kg), Edaravone (40 mg/Kg).

[2] = system: VEGF-A mRNA expression in macrophages (RAW264.7); assay: In vitro macrophage experiment: activity of compounds to promote VEGF-A mRNA expression (RT-qPCR); type: cell-based; parameters: Expression level of VEGF-A mRNA: unit of the concentration uncertain; details: RAW264.7 macrophages, 3 h, no drug = 1; for fold induction at 500 µM: 0.5 mM; for fold induction at 1000 µM: 1 mM; for fold induction at 2000 µM: 2 mM; for fold induction at 3000 µM: 3 mM
Description: 1.1. Specific steps for activity screening: 1-10×10^6 macrophages (RAW264.7) in logarithmic growth phase were transferred to a cell culture plate. The test compounds (Compounds TG-001, TG-002, TG-003, TG-004, TG-005, TG-006, TG-007, TG-008, TG-009, TG-010, TG-011, TG-012, TG-013, TG-014, TG-015, TG-016, TG-017, TG-018, TG-019, TG-020, TG-021, TG-022, TG-023, TG-024, TG-025, TG-026, TG-027, TG-028, TG-029, TG-030, TG-031, TG-032, TG-033, TG-034, TG-035, TG-036, TG-037, TG-045, TG-039, TG-040 TG-041, TG-042, TG-043, TG-044, TG-045, TG-052, TG-053, TG-054, TG-047, TG-048, TG-046, TG-049, TG-050, TG-051, TG-055 and TG-056) were respectively diluted into various concentrations, and separately added to the cell culture plate containing macrophage. The cells were cultured for 3 h in a complete medium (RPMI 1640 medium:fetal bovine serum:tri-resistance screening agent (i.e. penicillin-streptomycin-gentamicin, Beijing Leagene Biotechnology Co., Ltd.)=89:10:1 based on volume) in a cell incubator at 37° C. and 5% CO2. The cells were lyzed by Trizol (Beijing ComWin Biotech Co., Ltd) to extract RNA, and the RNA concentration was measured using a microvolume nucleic acid and protein analyzer (Nanodrop2000c). The required volume V of RNA was calculated according to the RNA concentration, and the RNA reverse transcription reaction system was prepared according to Table 1. Then RNA reverse transcription (cDNA synthesis) (RT Easy™ I (For first-strand cDNA synthesis) Reverse Transcription Kit, Chengdu ForeGene Biotechnology Co., Ltd.) was carried out according to the conditions described in Table 2. The resulting cDNA was used to prepare a fluorescence quantitative PCR reaction solution according to Table 3. The fluorescence quantitative PCR reaction conditions were set according to Table 4, and the fluorescence quantitative PCR reaction (Real time PCR Easy™-SYBR Green Fluorescence Quantification Kit, Chengdu ForeGene Biotechnology Co., Ltd.) was performed using cDNA from the reverse transcription reaction as a template. The relative expression level 2^−ΔΔCt of the target gene was calculated from the Ct value of each sample with the blank control group as a control and β-Actin as an internal reference.
Based on the maximum level of VEGF-A mRNA expression promoted by a drug at a certain concentration, the activity of the drug was determined. The expression level of VEGF-A mRNA in macrophages was defined as 1 when no drug was added. Using a traditional Chinese medicine injection Salvianolate that is used in the treatment of Cardio-cerebrovascular disease and promotes a maximum level of VEGF-A mRNA expression of 6 in macrophages (the results are shown in Table 5) as a judgment standard, the compound promoting a maximum level of VEGF-A mRNA expression of 4 or more in macrophage was a target compound. That is, when the maximum level of VEGF-A mRNA expression in macrophages promoted by the test compound is over 4-fold higher than the expression level of VEGF-A mRNA in macrophages without the addition of the test compound, the test compound was a preliminary target compound promoting angiogenesis.

VEGF-A mRNA = assay: Sponge implanted animal model of inflammatory angiogenesis: VEGF-A mRNA expression; type: in vivo, male C57/BL6 mice; details: 2 weeks
Description: The target pro-angiogenic compounds TG-052, TG-053, TG-054, TG-028, and TG-055 obtained in Effect Example 1 that perform well at the cellular level were further screened for the active molecules that promote VEGF-A mRNA expression in the “sponge implanted animal model” of inflammatory angiogenesis. […] This model can well reflect the expression of VEGF-A mRNA in macrophages recruited around inflammation.
A sponge implanted mouse model was established following the method as described in Zhang J, Modi Y, and Yarovinsky T, et al. Macrophage β2 integrin-mediated, HuR-dependent stabilization of angiogenic factor-encoding mRNAs in inflammatory angiogenesis. [J]. American Journal of Pathology, 2012. 180(4): 1751-1760. The mice used in the present invention was male C57/BL6 mice aged 6-8 weeks and weighing 20-25 g, purchased from Shanghai SLAC Laboratory Animal Co., Ltd, Production License No: SCXK (Shanghai) 2013-0016. The compound screened in Effect Example 1 was weighed according to the amount intended to be used in two weeks, and then mixed with a gel matrix and a solvent to prepare a sustained-release gel of the compound (see Patent Application No.: CN201610168493.9 for the details of the preparation method of the sustained-release gel and the model establishment and detection methods). The specific steps were as follows. A certain amount of the compound obtained in Effect Example 1 was weighed into a 1.5 mL EP tube, and then a certain amount of poly-L-lactic acid (PLLA) with a weight average molecular weight of less than 10,000 was weighed and mixed with the compound (at a weight ratio of the compound to PLLA of 0.5:1 to 2:1). Finally a certain amount of DMSO (less than 100 microliters) was added, spun, mixed well, and then sealed with a sealing film. After continuous ultrasonication at 200 W and 25° C. for 5 h, a sustained-release gel of the compound was obtained, which was stored at 4° C. for later use.
The prepared sustained-release gel can release the drug completely within 2 weeks. The sustained-release gel and sponge were both subcutaneously implanted in the mice at the back. After 2 weeks, the sponge was taken out, and the residual tissue and fur were removed. The sponge was transferred to a cell culture plate containing 10 mL of DMEM medium containing collagenase (Collagenase:DMEM=10 mg/10 mL), cut, and incubated for 1 h in a cell incubator. Then the culture medium containing sponge debris was filtered, and the resulting filtrate was centrifuged. The supernatant was discarded, and 500 μL of Trizol reagent was added to the pellet, and mixed uniformly by blowing. Then the liquid was transferred to a 1.5 mL EP tube, and stored at −80° C. RNA was extracted according to a conventional method, and the RNA concentration was determined using a microvolume nucleic acid and protein analyzer (Nanodrop2000c). The required volume V of RNA was calculated according to the RNA concentration, and the RNA reverse transcription reaction system was prepared according to Table 1. Then RNA reverse transcription (cDNA synthesis) was carried out according to the conditions described in Table 2. The resulting cDNA was used to prepare a fluorescence quantitative qPCR reaction solution according to Table 3. The fluorescence quantitative qPCR reaction conditions were set according to Table 4, and the fluorescence quantitative PCR reaction was performed using cDNA from the reverse transcription reaction as a template. The relative expression level 2^−ΔΔCt of the target gene was calculated from the Ct value of each sample with the blank group as a control and β-Actin as an internal reference. The expression level of VEGF-A mRNA in the cells extracted from the sponge was observed after 2 weeks. […]

[3] = Mus musculus, relative expression, read-out: Expression level of VEGF-A mRNA

Q: With COC(=O)[C@H](c1ccccc1Cl)N1CCc2sccc2C1 [Clopidogrel bisulfate, reference compound] as the compound, how does the ED50 ([1]; Rattus norvegicus, ip, 72 h, intraperitoneal injection, TTC staining after 3 days, read-out: ED50 for infarction inhibition rate (%)) read?
A: 28.1 mg/kg

Q: With OC[C@H]1O[C@@H](OCCCCc2ccc(OCc3ccc(F)cc3)cc2)[C@H](O)[C@@H](O)[C@@H]1O [TG-051] as the compound, how does the fold induction at 1 µM ([2]; Mus musculus, 1 μM, relative expression 2^-ΔΔCt, read-out: Expression level of VEGF-A mRNA) read?
A: 1.1

Q: What about the fold induction at 100 µM ([2]; Mus musculus, 0.1 mM, relative expression, read-out: Expression level of VEGF-A mRNA) of the same compound?
A: 4.49

Q: What about the fold induction at 500 µM [2, 3] of the same compound?
A: 6.76

Q: And the fold induction at 1000 µM [2, 3]?
A: 7.89

Q: And the fold induction at 2000 µM [2, 3]?
A: 11.2

Q: What about the fold induction at 3000 µM [2, 3] of the same compound?
A: 8.18

Q: For COc1ccc(CO[C@@H]2O[C@H](CO)[C@@H](O)[C@H](O)[C@H]2O)cc1 [TG-052], which fold induction at 500 µM [2, 3] is on record?
A: 19.7

Q: And the fold induction at 1000 µM [2, 3]?
A: 0.93

Q: What about the fold induction at 2000 µM [2, 3] of the same compound?
A: 2.64

Q: What about the fold induction at 3000 µM [2, 3] of the same compound?
A: 2.69

Q: And the fold induction at 4000 µM ([2]; Mus musculus, 4 mM, relative expression, read-out: Expression level of VEGF-A mRNA)?
A: 3.51

Q: And the “increase of expression level of VEGF-A mRNA compared with blank control without drugs” value (VEGF-A mRNA; 41.37 mg/kg/d, sustained-release gel, mice)?
A: about 3 times

Q: And the “activity in promoting VEGF-A mRNA expression compared with Salvianolate (in words)” value (VEGF-A mRNA; positive control Salvianolate 60 mg/kg/d, sponge implanted mice)?
A: comparable to that of Salvianolate

Q: What does the source list for COc1cc(CCCCO[C@@H]2O[C@H](CO)[C@@H](O)[C@H](O)[C@H]2O)ccc1O [TG-057]?
A: Longa nerve scoring, protective effect on nerves (in words) ([1]; 5 mg/kg, FIG. 20): has a protective effect on nerves in rats after brain injury, but the effect is not as strong as that of TG-028; effect of inhibiting cerebral infarction (in words) ([1]; 5 mg/kg, FIG. 20): has the effect of inhibiting cerebral infarction in the rats

Q: With TG-003 as the compound, how does the “Expression level of VEGF-A mRNA” value ([2]; 1 μM, relative expression 2^-ΔΔCt) read?
A: 0.96

Q: And the “Expression level of VEGF-A mRNA” value ([2]; 0.1 (unit uncertain), relative expression)?
A: 3.56

Q: And the “Expression level of VEGF-A mRNA” value ([2]; 0.5 (unit uncertain), relative expression)?
A: 4.69

Q: And the “Expression level of VEGF-A mRNA” value ([2]; 1 (unit uncertain), relative expression)?
A: 3.12

Q: And the “Expression level of VEGF-A mRNA” value ([2]; 2 (unit uncertain), relative expression)?
A: 1.39

Q: What about the “Expression level of VEGF-A mRNA” value ([2]; 3 (unit uncertain), relative expression) of the same compound?
A: 0.56
